Assay results taken from ChEMBL document CHEMBL4376833, “Influence of Non-natural Cationic Amino Acids on the Biological Activity Profile of Innate Defense Regulator Peptides” (J Med Chem, 2019).
Activity calls are given as the source filed them. The rule behind the calls is not given here. Non-standard residues stand in square brackets, D forms with d. Residues, ends and D or L forms follow the SMILES beside them. hArg = N=C(N)NCCCC[C@H](N)C(=O)O; Agb = N=C(N)NCC[C@H](N)C(=O)O; Agp = N=C(N)NC[C@H](N)C(=O)O; Orn = NCCC[C@H](N)C(=O)O; Dab = NCC[C@H](N)C(=O)O; Dap = NC[C@H](N)C(=O)O

How the values were obtained:
Staphylococcus aureus [1] = assay: Antibacterial activity against methicillin-resistant Staphylococcus aureus assessed as alteration in bacterial growth incubated for overnight by microtiter plate based spectrophotometric analysis; assay type: functional, organism-based
Staphylococcus aureus [2] = assay: Antibiofilm activity against methicillin-resistant Staphylococcus aureus assessed as inhibition of biofilm formation by measuring residual biofilm growth incubated for overnight at 10-fold dilution by crystal violet staining based microtiter plate assay relative to control; assay type: functional
Staphylococcus aureus [3] = assay: Antibiofilm activity against methicillin-resistant Staphylococcus aureus assessed as inhibition of biofilm formation incubated for overnight by crystal violet staining based microtiter plate assay; assay type: functional, organism-based

CC[C@H](C)[C@H](NC(=O)[C@H](CCCNC(=N)N)NC(=O)[C@H](CCN)NC(=O)[C@H](C)NC(=O)[C@@H](NC(=O)[C@@H](NC(=O)[C@H](CC(C)C)NC(=O)[C@H](CCCNC(=N)N)NC(=O)[C@@H](N)C(C)C)[C@@H](C)CC)C(C)C)C(=O)N[C@@H](Cc1c[nH]c2ccccc12)C(=O)N[C@@H](CCCNC(=N)N)C(=O)N[C@@H](CCCNC(=N)N)C(N)=O (H-VRLIVA[Dab]RIWRR-NH2)
Activity (Staphylococcus aureus [1]): Active
residual biofilm growth (% of control) (Staphylococcus aureus [2]): 102.5%
inhibition (Staphylococcus aureus [3]): Dose-dependent effect

CC[C@H](C)[C@H](NC(=O)[C@H](CCCNC(=N)N)NC(=O)[C@H](CN)NC(=O)[C@H](C)NC(=O)[C@@H](NC(=O)[C@@H](NC(=O)[C@H](CC(C)C)NC(=O)[C@H](CCCNC(=N)N)NC(=O)[C@@H](N)C(C)C)[C@@H](C)CC)C(C)C)C(=O)N[C@@H](Cc1c[nH]c2ccccc12)C(=O)N[C@@H](CCCNC(=N)N)C(=O)N[C@@H](CCCNC(=N)N)C(N)=O (H-VRLIVA[Dap]RIWRR-NH2)
Activity (Staphylococcus aureus [1]): Active
residual biofilm growth (% of control) (Staphylococcus aureus [2]): 102%
inhibition (Staphylococcus aureus [3]): Dose-dependent effect

CC[C@H](C)[C@H](NC(=O)[C@H](CCCNC(=N)N)NC(=O)[C@H](CCCN)NC(=O)[C@H](C)NC(=O)[C@@H](NC(=O)[C@@H](NC(=O)[C@H](CC(C)C)NC(=O)[C@H](CCCNC(=N)N)NC(=O)[C@@H](N)C(C)C)[C@@H](C)CC)C(C)C)C(=O)N[C@@H](Cc1c[nH]c2ccccc12)C(=O)N[C@@H](CCCNC(=N)N)C(=O)N[C@@H](CCCNC(=N)N)C(N)=O (H-VRLIVA[Orn]RIWRR-NH2)
Activity (Staphylococcus aureus [1]): Active
residual biofilm growth (% of control) (Staphylococcus aureus [2]): 103%
inhibition (Staphylococcus aureus [3]): Dose-dependent effect

CC[C@H](C)[C@H](NC(=O)[C@H](CCCNC(=N)N)NC(=O)[C@H](CCCCNC(=N)N)NC(=O)[C@H](C)NC(=O)[C@@H](NC(=O)[C@@H](NC(=O)[C@H](CC(C)C)NC(=O)[C@H](CCCNC(=N)N)NC(=O)[C@@H](N)C(C)C)[C@@H](C)CC)C(C)C)C(=O)N[C@@H](Cc1c[nH]c2ccccc12)C(=O)N[C@@H](CCCNC(=N)N)C(=O)N[C@@H](CCCNC(=N)N)C(N)=O (H-VRLIVA[hArg]RIWRR-NH2)
Activity (Staphylococcus aureus [1]): Active
residual biofilm growth (% of control) (Staphylococcus aureus [2]): 107%
inhibition (Staphylococcus aureus [3]): Dose-dependent effect

CC[C@H](C)[C@H](NC(=O)[C@H](CCCNC(=N)N)NC(=O)[C@@H](NC(=O)[C@H](CCNC(=N)N)NC(=O)[C@@H](NC(=O)[C@@H](NC(=O)[C@H](CC(C)C)NC(=O)[C@H](CCCNC(=N)N)NC(=O)[C@@H](N)C(C)C)[C@@H](C)CC)C(C)C)C(C)C)C(=O)N[C@@H](Cc1c[nH]c2ccccc12)C(=O)N[C@@H](CCCNC(=N)N)C(=O)N[C@@H](CCCNC(=N)N)C(N)=O (H-VRLIV[Agb]VRIWRR-NH2)
Activity (Staphylococcus aureus [1]): Active
residual biofilm growth (% of control) (Staphylococcus aureus [2]): 105.9%
inhibition (Staphylococcus aureus [3]): Dose-dependent effect

CC[C@H](C)[C@H](NC(=O)[C@H](CCCNC(=N)N)NC(=O)[C@@H](NC(=O)[C@H](CNC(=N)N)NC(=O)[C@@H](NC(=O)[C@@H](NC(=O)[C@H](CC(C)C)NC(=O)[C@H](CCCNC(=N)N)NC(=O)[C@@H](N)C(C)C)[C@@H](C)CC)C(C)C)C(C)C)C(=O)N[C@@H](Cc1c[nH]c2ccccc12)C(=O)N[C@@H](CCCNC(=N)N)C(=O)N[C@@H](CCCNC(=N)N)C(N)=O (H-VRLIV[Agp]VRIWRR-NH2)
Activity (Staphylococcus aureus [1]): Active
residual biofilm growth (% of control) (Staphylococcus aureus [2]): 104.8%
inhibition (Staphylococcus aureus [3]): Dose-dependent effect

CC[C@H](C)[C@H](NC(=O)[C@H](CCCNC(=N)N)NC(=O)[C@@H](NC(=O)[C@H](CCN)NC(=O)[C@@H](NC(=O)[C@@H](NC(=O)[C@H](CC(C)C)NC(=O)[C@H](CCCNC(=N)N)NC(=O)[C@@H](N)C(C)C)[C@@H](C)CC)C(C)C)C(C)C)C(=O)N[C@@H](Cc1c[nH]c2ccccc12)C(=O)N[C@@H](CCCNC(=N)N)C(=O)N[C@@H](CCCNC(=N)N)C(N)=O (H-VRLIV[Dab]VRIWRR-NH2)
Activity (Staphylococcus aureus [1]): Active
residual biofilm growth (% of control) (Staphylococcus aureus [2]): 52.7%
inhibition (Staphylococcus aureus [3]): Dose-dependent effect

CC[C@H](C)[C@H](NC(=O)[C@H](CCCNC(=N)N)NC(=O)[C@@H](NC(=O)[C@H](CN)NC(=O)[C@@H](NC(=O)[C@@H](NC(=O)[C@H](CC(C)C)NC(=O)[C@H](CCCNC(=N)N)NC(=O)[C@@H](N)C(C)C)[C@@H](C)CC)C(C)C)C(C)C)C(=O)N[C@@H](Cc1c[nH]c2ccccc12)C(=O)N[C@@H](CCCNC(=N)N)C(=O)N[C@@H](CCCNC(=N)N)C(N)=O (H-VRLIV[Dap]VRIWRR-NH2)
Activity (Staphylococcus aureus [1]): Active
residual biofilm growth (% of control) (Staphylococcus aureus [2]): 34.1%
inhibition (Staphylococcus aureus [3]): Dose-dependent effect

CC[C@H](C)[C@H](NC(=O)[C@H](CCCNC(=N)N)NC(=O)[C@@H](NC(=O)[C@H](CCCN)NC(=O)[C@@H](NC(=O)[C@@H](NC(=O)[C@H](CC(C)C)NC(=O)[C@H](CCCNC(=N)N)NC(=O)[C@@H](N)C(C)C)[C@@H](C)CC)C(C)C)C(C)C)C(=O)N[C@@H](Cc1c[nH]c2ccccc12)C(=O)N[C@@H](CCCNC(=N)N)C(=O)N[C@@H](CCCNC(=N)N)C(N)=O (H-VRLIV[Orn]VRIWRR-NH2)
Activity (Staphylococcus aureus [1]): Active
residual biofilm growth (% of control) (Staphylococcus aureus [2]): 14.2%
inhibition (Staphylococcus aureus [3]): Dose-dependent effect

CC[C@H](C)[C@H](NC(=O)[C@H](CCCNC(=N)N)NC(=O)[C@@H](NC(=O)[C@H](CCCCNC(=N)N)NC(=O)[C@@H](NC(=O)[C@@H](NC(=O)[C@H](CC(C)C)NC(=O)[C@H](CCCNC(=N)N)NC(=O)[C@@H](N)C(C)C)[C@@H](C)CC)C(C)C)C(C)C)C(=O)N[C@@H](Cc1c[nH]c2ccccc12)C(=O)N[C@@H](CCCNC(=N)N)C(=O)N[C@@H](CCCNC(=N)N)C(N)=O (H-VRLIV[hArg]VRIWRR-NH2)
Activity (Staphylococcus aureus [1]): Active
residual biofilm growth (% of control) (Staphylococcus aureus [2]): 19.7%
inhibition (Staphylococcus aureus [3]): Dose-dependent effect

CC[C@H](C)[C@H](NC(=O)[C@H](CC(C)C)NC(=O)[C@H](CCCNC(=N)N)NC(=O)[C@@H](N)C(C)C)C(=O)N[C@@H](CCNC(=N)N)C(=O)N[C@@H](C)C(=O)N[C@H](C(=O)N[C@@H](CCCNC(=N)N)C(=O)N[C@H](C(=O)N[C@@H](Cc1c[nH]c2ccccc12)C(=O)N[C@@H](CCCNC(=N)N)C(=O)N[C@@H](CCCNC(=N)N)C(N)=O)[C@@H](C)CC)C(C)C (H-VRLI[Agb]AVRIWRR-NH2)
Activity (Staphylococcus aureus [1]): Active
residual biofilm growth (% of control) (Staphylococcus aureus [2]): 103.2%
inhibition (Staphylococcus aureus [3]): Dose-dependent effect

CC[C@H](C)[C@H](NC(=O)[C@H](CC(C)C)NC(=O)[C@H](CCCNC(=N)N)NC(=O)[C@@H](N)C(C)C)C(=O)N[C@@H](CNC(=N)N)C(=O)N[C@@H](C)C(=O)N[C@H](C(=O)N[C@@H](CCCNC(=N)N)C(=O)N[C@H](C(=O)N[C@@H](Cc1c[nH]c2ccccc12)C(=O)N[C@@H](CCCNC(=N)N)C(=O)N[C@@H](CCCNC(=N)N)C(N)=O)[C@@H](C)CC)C(C)C (H-VRLI[Agp]AVRIWRR-NH2)
Activity (Staphylococcus aureus [1]): Active
residual biofilm growth (% of control) (Staphylococcus aureus [2]): 99.9%
inhibition (Staphylococcus aureus [3]): Dose-dependent effect

CC[C@H](C)[C@H](NC(=O)[C@H](CC(C)C)NC(=O)[C@H](CCCNC(=N)N)NC(=O)[C@@H](N)C(C)C)C(=O)N[C@@H](CCN)C(=O)N[C@@H](C)C(=O)N[C@H](C(=O)N[C@@H](CCCNC(=N)N)C(=O)N[C@H](C(=O)N[C@@H](Cc1c[nH]c2ccccc12)C(=O)N[C@@H](CCCNC(=N)N)C(=O)N[C@@H](CCCNC(=N)N)C(N)=O)[C@@H](C)CC)C(C)C (H-VRLI[Dab]AVRIWRR-NH2)
Activity (Staphylococcus aureus [1]): Active
residual biofilm growth (% of control) (Staphylococcus aureus [2]): 102.7%
inhibition (Staphylococcus aureus [3]): Dose-dependent effect

CC[C@H](C)[C@H](NC(=O)[C@H](CC(C)C)NC(=O)[C@H](CCCNC(=N)N)NC(=O)[C@@H](N)C(C)C)C(=O)N[C@@H](CN)C(=O)N[C@@H](C)C(=O)N[C@H](C(=O)N[C@@H](CCCNC(=N)N)C(=O)N[C@H](C(=O)N[C@@H](Cc1c[nH]c2ccccc12)C(=O)N[C@@H](CCCNC(=N)N)C(=O)N[C@@H](CCCNC(=N)N)C(N)=O)[C@@H](C)CC)C(C)C (H-VRLI[Dap]AVRIWRR-NH2)
Activity (Staphylococcus aureus [1]): Active
residual biofilm growth (% of control) (Staphylococcus aureus [2]): 92%
inhibition (Staphylococcus aureus [3]): Dose-dependent effect

CC[C@H](C)[C@H](NC(=O)[C@H](CC(C)C)NC(=O)[C@H](CCCNC(=N)N)NC(=O)[C@@H](N)C(C)C)C(=O)N[C@@H](CCCN)C(=O)N[C@@H](C)C(=O)N[C@H](C(=O)N[C@@H](CCCNC(=N)N)C(=O)N[C@H](C(=O)N[C@@H](Cc1c[nH]c2ccccc12)C(=O)N[C@@H](CCCNC(=N)N)C(=O)N[C@@H](CCCNC(=N)N)C(N)=O)[C@@H](C)CC)C(C)C (H-VRLI[Orn]AVRIWRR-NH2)
Activity (Staphylococcus aureus [1]): Active
residual biofilm growth (% of control) (Staphylococcus aureus [2]): 103%
inhibition (Staphylococcus aureus [3]): Dose-dependent effect

CC[C@H](C)[C@H](NC(=O)[C@H](CC(C)C)NC(=O)[C@H](CCCNC(=N)N)NC(=O)[C@@H](N)C(C)C)C(=O)N[C@@H](CCCCNC(=N)N)C(=O)N[C@@H](C)C(=O)N[C@H](C(=O)N[C@@H](CCCNC(=N)N)C(=O)N[C@H](C(=O)N[C@@H](Cc1c[nH]c2ccccc12)C(=O)N[C@@H](CCCNC(=N)N)C(=O)N[C@@H](CCCNC(=N)N)C(N)=O)[C@@H](C)CC)C(C)C (H-VRLI[hArg]AVRIWRR-NH2)
Activity (Staphylococcus aureus [1]): Active
residual biofilm growth (% of control) (Staphylococcus aureus [2]): 110.4%
inhibition (Staphylococcus aureus [3]): Dose-dependent effect

CC[C@H](C)[C@H](NC(=O)[C@H](CCCNC(=N)N)NC(=O)[C@@H](NC(=O)[C@H](C)NC(=O)[C@@H](NC(=O)[C@H](CCNC(=N)N)NC(=O)[C@H](CC(C)C)NC(=O)[C@H](CCCNC(=N)N)NC(=O)[C@@H](N)C(C)C)C(C)C)C(C)C)C(=O)N[C@@H](Cc1c[nH]c2ccccc12)C(=O)N[C@@H](CCCNC(=N)N)C(=O)N[C@@H](CCCNC(=N)N)C(N)=O (H-VRL[Agb]VAVRIWRR-NH2)
Activity (Staphylococcus aureus [1]): Active
residual biofilm growth (% of control) (Staphylococcus aureus [2]): 98.5%
inhibition (Staphylococcus aureus [3]): Dose-dependent effect

CC[C@H](C)[C@H](NC(=O)[C@H](CCCNC(=N)N)NC(=O)[C@@H](NC(=O)[C@H](C)NC(=O)[C@@H](NC(=O)[C@H](CNC(=N)N)NC(=O)[C@H](CC(C)C)NC(=O)[C@H](CCCNC(=N)N)NC(=O)[C@@H](N)C(C)C)C(C)C)C(C)C)C(=O)N[C@@H](Cc1c[nH]c2ccccc12)C(=O)N[C@@H](CCCNC(=N)N)C(=O)N[C@@H](CCCNC(=N)N)C(N)=O (H-VRL[Agp]VAVRIWRR-NH2)
Activity (Staphylococcus aureus [1]): Active
residual biofilm growth (% of control) (Staphylococcus aureus [2]): 104.1%
inhibition (Staphylococcus aureus [3]): Dose-dependent effect
